Measured values reported in patent publication US5210089A, “D-rhamnono-1,5-lactone” (Monsanto Company, priority 1992, dated 1993).

Assays:
Format in all cases: biochemical
[1] = system: α-rhamnosidase (naringinase); assay: Naringinase assay with p-nitrophenyl α-L-rhamnoside; conditions: for Inhibition (%) at 1 mM, α-rhamnosidase (naringinase): 1 mM compound, p-nitrophenyl α-L-rhamnoside 1.75 mM
Method: (§1) Melting points were recorded on a Kofler hot block. Proton nuclear magnetic resonance (δH) spectra were recorded on Varian Gemini 200 (at 200 MHz), Bruker WH 300 (300 MHz), or Bruker AM 500 (500 MHz) spectrometers. Carbon nuclear magnetic resonance (δC) spectra were recorded on a Varian Gemini 200 (50 MHz) or a Bruker 250 (62.9 MHz) spectrometer. Multiplicities were assigned using DEPT sequence on the Gemini and by off resonance decoupling on the Bruker. Spectra run in D2 O were referenced to methanol as an internal standard. All chemical shifts are quoted on the δ-scale. Infrared spectra were recorded on a Perkin-Elmer 297, or on a Perkin-Elmer 781 spectrophotometer. Mass spectra were recorded on VG Micromass 30F, ZAB lF, Masslab 20-250 or Trio-1 GCMS (DB-5 column) spectrometers using desorption chemical ionization (NH3 DCI), electron impact (EI), chemical ionization (NH3 CI) and fast atom bombardment (FAB) techniques, as stated. […] Concentrations were given in g/100 ml. Hydrogenations were run under an atmosphere of hydrogen gas maintained by inflated balloon. Microanalyses were performed by the microanalysis service of the DysonPerrins laboratory, Oxford UK. Thin layer chromatography (t.l.c.) was carried out on aluminum sheets coated with 60F254 silica. Plates were developed using either 5% v/v concentrated sulphuric acid in methanol, 0.2% w/v cerium (IV) sulphate and 5% ammonium molybdate in 2M sulphuric acid and 0.5% ninhydrin in methanol. Flash chromatography was carried out using Sorbsil C60 40/60 silica. Ion-exchange chromatography was performed using Dowex 50W-X8 (H) and Sigma CG 400 (Cl) resins. The resins were washed with 2M hydrochloric acid and 2M sodium hydroxide solution, respectively, and subsequently with distilled water, prior to use. Solvents and commercially available reagents were dried and purified before use according to standard procedures; dichloromethane was refluxed over and distilled from calcium hydride, N,N-dimethylformamide was distilled under reduced pressure from calcium hydride, methanol was distilled from magnesium methoxide, pyridine was distilled from, and stored over, potassium hydroxide and tetrahydrofuran was distilled from a purple solution of sodium benzophenone ketyl immediately before use. Hexane was distilled at 68° C. before use to remove involatile fractions. 2,3-O-Isopropylidene-L-gulono-1,4-lactone (9) [H. Ogura et al., J. Oro. Chem. 37, 72 (1972); G. W. J. Fleet Tetrahedron 45, 319 (1989)]and 2,3-O-isopropylidene-D-gulono-1,4-lactone (15) [L. M. Lerner et al., J. Org. Chem. 33, 1780 (1968)]were prepared from D- and L-Chem. gulonolactones [purchased from the Sigma Chemical Company] as reported previously. See, e.g., Fleet, U.S. Pat. No. 4,861,892. Human liver glycosidases were assayed in the absence and presence [1 mM] of each of the compounds using the appropriate buffered 4-methylumbellifeeryl-glycosides as substrates, as described previously. [B. Winchest et al., Biochem. J. 265, 277 (1990)]. Naringinase was assayed using pnitrophenyl α-L-rhamnoside (1.75 mM) as substrates, according to Romero [C. Romero et al., Anal. Biochem. 149, 566 (1985)].
(§2) The enzymes included human liver glycosidases and naringinase. The latter enzyme is a readily available endo-L-rhamnosidase described by Romero et al., Anal. Biochem. 149, 566 (1985).

[2] = target: T1, Lysosomal α-fucosidase (Homo sapiens, UniProt P04066); assay: Human liver glycosidase assay, lysosomal α-fucosidase; conditions: for inhibition at 1000 µM: 1 mM compound, human liver, read-out: Inhibition (%) at 1 mM, lysosomal α-fucosidase
T1 construct: human liver extracts; from tissue; host or cells: human liver extracts
T1 sequence (P04066 32-466): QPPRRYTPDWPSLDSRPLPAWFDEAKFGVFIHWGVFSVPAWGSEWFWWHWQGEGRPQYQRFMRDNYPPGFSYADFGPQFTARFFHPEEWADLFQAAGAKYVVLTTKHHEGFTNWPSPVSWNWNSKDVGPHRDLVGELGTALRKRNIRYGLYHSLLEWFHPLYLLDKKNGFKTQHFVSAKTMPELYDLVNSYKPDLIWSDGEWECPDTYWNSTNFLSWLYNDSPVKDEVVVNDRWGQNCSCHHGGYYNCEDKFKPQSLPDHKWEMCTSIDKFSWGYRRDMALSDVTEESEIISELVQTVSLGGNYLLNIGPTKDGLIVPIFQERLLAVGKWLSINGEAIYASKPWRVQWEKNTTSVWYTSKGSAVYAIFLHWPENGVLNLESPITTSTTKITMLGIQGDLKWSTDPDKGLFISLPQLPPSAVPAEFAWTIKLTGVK
Method: as §1, §2

[3] = target: T2, β-mannosidase (Homo sapiens, UniProt O00462); assay: Human liver glycosidase assay, β-mannosidase; design: human liver extracts; from tissue; host or cells: human liver extracts
T2 sequence (O00462 18-879): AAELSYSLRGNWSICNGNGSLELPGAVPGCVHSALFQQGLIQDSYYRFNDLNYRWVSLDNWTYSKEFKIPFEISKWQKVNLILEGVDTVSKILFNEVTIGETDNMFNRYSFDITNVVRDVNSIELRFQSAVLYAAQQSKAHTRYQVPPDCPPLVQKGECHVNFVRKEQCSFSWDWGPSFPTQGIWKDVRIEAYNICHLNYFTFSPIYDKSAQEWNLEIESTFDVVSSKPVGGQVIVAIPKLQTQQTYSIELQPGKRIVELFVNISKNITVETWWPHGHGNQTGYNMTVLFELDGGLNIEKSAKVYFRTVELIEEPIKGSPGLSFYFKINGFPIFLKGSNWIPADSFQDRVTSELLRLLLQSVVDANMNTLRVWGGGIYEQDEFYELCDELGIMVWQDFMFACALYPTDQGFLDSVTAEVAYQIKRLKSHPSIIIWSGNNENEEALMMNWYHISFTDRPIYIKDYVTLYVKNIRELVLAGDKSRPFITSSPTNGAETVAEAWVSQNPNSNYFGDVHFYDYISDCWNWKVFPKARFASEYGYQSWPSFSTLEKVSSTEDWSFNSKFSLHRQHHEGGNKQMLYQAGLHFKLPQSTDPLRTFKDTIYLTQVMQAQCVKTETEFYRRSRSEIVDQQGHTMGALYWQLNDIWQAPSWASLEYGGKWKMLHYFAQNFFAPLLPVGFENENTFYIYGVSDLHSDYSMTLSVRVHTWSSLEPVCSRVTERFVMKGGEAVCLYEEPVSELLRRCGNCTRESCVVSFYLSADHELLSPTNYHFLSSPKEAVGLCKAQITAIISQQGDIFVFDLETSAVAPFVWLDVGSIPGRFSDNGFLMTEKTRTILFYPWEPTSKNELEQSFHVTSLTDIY
Method: as §1, with “Chem. 33, 1780 (1968)]were prepared from D- and L-Chem. gulonolactones [purchased from the Sigma Chemical Company] as reported previously. See, e.g., Fleet, U.S. Pat. No. 4,861,892. Human liver glycosidases were assayed in the absence and presence [1 mM] of each of the compounds using the appropriate buffered 4-methylumbellifeeryl-glycosides as substrates, as described previously. [B. Winchest et al., Biochem. J. 265, 277 (1990)]. Naringinase was assayed using pnitrophenyl α-L-rhamnoside (1.75 mM) as substrates, according to Romero [C. Romero et al., Anal. Biochem. 149, 566 (1985)].” left out
as §2

| Inhibition (%) at 1 mM, α-rhamnosidase (naringinase) [1] | inhibition at 1000 µM [2] | Inhibition of α-rhamnosidase (in words) [1] | Inhibition of α-fucosidase (in words) [2] | Inhibition of β-mannosidase (in words) [3] | SMILES | IC50 [3] | inhibition at 1000 µM ([3]; read-out: Inhibition (%) at 1 mM, β-mannosidase) |
| --- | --- | --- | --- | --- | --- | --- | --- |
| 3% | 0% | not of α-rhamnosidase | does not show any significant inhibition | inhibitor of α- and β-mannosidases | C[C@H]1NC(=O)[C@@H](O)[C@@H](O)[C@@H]1O [D-Rhamno-1,5-lactam (6), 6-Deoxy-D-mannono-δ-lactam] | – | – |
| 0% | 0% | no inhibitory activity | – | no inhibitory activity | C[C@@H]1NC(=O)[C@H](O)[C@H](O)[C@H]1O [L-Rhamno-1,5-lactam (8), 6-Deoxy-L-mannono-δ-lactam] | – | – |

| SMILES | Inhibition (%) at 1 mM, α-rhamnosidase (naringinase) [1] | inhibition at 1000 µM [2] | Inhibition of α-rhamnosidase (in words) [1] | Inhibition of α-fucosidase (in words) [2] | Inhibition of β-mannosidase (in words) [3] | IC50 [3] | inhibition at 1000 µM ([3]; read-out: Inhibition (%) at 1 mM, β-mannosidase) |
| --- | --- | --- | --- | --- | --- | --- | --- |
| O=C1N[C@H](CO)[C@@H](O)[C@H](O)[C@@H]1O [Mannono-1,5-lactam (2), D-mannonolactam] | 12% | 0% | – | – | – | 10 µM | 99% |
